Experimental findings from ChEMBL document CHEMBL4825728, “Development of succinimide-based inhibitors for the mitochondrial rhomboid protease PARL” (Bioorg Med Chem Lett, 2021) are described below.

The source made the active and inactive calls. The calls are words filed in the database; no cut-off is given here.

As usually defined, the inhibition is the change of the read-out against control, counted positive when it falls. What is called IC50 is the midpoint of a concentration-inhibition curve.

The nature of series [1]: Solubility of the compound in HEK-293T cell membrane transfected with FLAG-tagged human PARL. The format is ADME, cell membranes.
The target in series [2] is T1, Rhomboid protease GlpG (Escherichia coli (strain K12)) (UniProt P09391).
T1 sequence (whole entry): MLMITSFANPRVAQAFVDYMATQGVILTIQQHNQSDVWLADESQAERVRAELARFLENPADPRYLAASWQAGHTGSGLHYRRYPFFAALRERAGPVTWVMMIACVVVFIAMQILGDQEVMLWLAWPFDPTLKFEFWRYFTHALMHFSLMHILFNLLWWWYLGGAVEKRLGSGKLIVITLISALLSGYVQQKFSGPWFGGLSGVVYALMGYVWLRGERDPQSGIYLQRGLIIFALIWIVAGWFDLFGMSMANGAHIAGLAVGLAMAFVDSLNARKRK
The series is described as follows: Inhibition of GlpG in Escherichia coli BL21 assessed as inhibition of FP-Rh labeling at 200 uM treated with compound prior to FP-Rh addition by competitive ABPP based analysis.

Series [3] concerns the target T2, Presenilin-associated rhomboid-like protein, mitochondrial (Homo sapiens) (UniProt Q9H300).
T2 sequence (whole entry): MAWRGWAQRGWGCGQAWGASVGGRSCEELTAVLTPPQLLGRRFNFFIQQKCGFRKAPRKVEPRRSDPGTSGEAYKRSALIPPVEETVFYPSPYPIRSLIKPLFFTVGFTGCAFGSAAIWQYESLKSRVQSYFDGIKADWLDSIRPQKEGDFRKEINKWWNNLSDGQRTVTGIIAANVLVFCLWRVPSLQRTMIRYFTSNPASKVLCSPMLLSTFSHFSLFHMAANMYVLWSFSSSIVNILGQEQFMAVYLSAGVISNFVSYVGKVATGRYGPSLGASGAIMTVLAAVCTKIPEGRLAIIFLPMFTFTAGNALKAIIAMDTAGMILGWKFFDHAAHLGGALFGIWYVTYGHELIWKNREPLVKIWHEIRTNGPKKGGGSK
Kind of series: Inhibition of FLAG-tagged human PARL transfected in HEK293T cell membrane assessed as inhibition of FP-Rh labeling at 100 uM incubated for 24 hrs followed by cells washing and lysis prior to FP-Rh labeling by In situ based analysis. The format is cell membranes.

Series [4] concerns the target T2, Presenilin-associated rhomboid-like protein, mitochondrial (Homo sapiens). Kind of series: Inhibition of FLAG-tagged human PARL transfected in HEK293T cell membrane assessed as inhibition of FP-Rh labeling at 100 uM incubated for 8 hrs followed by cells washing and lysis prior to FP-Rh labeling by In situ based analysis. The format is cell membranes.
Series [5] addresses T3, Presenilin-associated rhomboid-like protein, mitochondrial (Homo sapiens, UniProt Q9H300).
T3 sequence (Q9H300 whole entry): T2 sequence (whole entry)
Kind of series: Inhibition of human PARL transfected in HEK293T cell membrane assessed as inhibition of FP-Rh labeling treated with compound for 30 mins prior to FP-Rh addition by competitive ABPP based analysis. The format is cell membranes.

The target of series [6] is T4, Rhomboid protease GlpG (Escherichia coli (strain K12), UniProt P09391).
T4 sequence (P09391 whole entry): T1 sequence (whole entry)
The series is described as follows: Inhibition of GlpG in Escherichia coli BL21 assessed as inhibition of FP-Rh labeling treated with compound for 30 mins prior to FP-Rh addition by competitive ABPP based analysis.

For series [7], the target named is T2, Presenilin-associated rhomboid-like protein, mitochondrial (Homo sapiens). The series is described as follows: Inhibition of FLAG-tagged human PARL transfected in HEK293T cell membrane assessed as inhibition of FP-Rh labeling at 200 uM treated with compound prior to FP-Rh addition by competitive ABPP based analysis. The format is cell membranes.
Series [8] shares this target. The series is described as follows: Reversible inhibition of FLAG-tagged human PARL transfected in HEK293T cell membrane assessed as FP-Rh labeling at 200 uM treated with compound followed by gel filtration and later incubated for 4 hrs prior to FP-Rh labeling by competitive ABPP based analysis. Also on record: Activity: scale not given: the % may be the effect or the level left. The format is cell membranes. For orientation: Size exclusion chromatography separates by hydrodynamic size, large species first.

For series [9] the target is unchanged. Kind of series: Reversible inhibition of FLAG-tagged human PARL transfected in HEK293T cell membrane assessed as FP-Rh labeling at 200 uM treated with compound followed by gel filtration and later incubated for 4 hrs prior to FP-Rh labeling by western blot analysis. Type of series: cell membranes.

In the case of `O=C1CCC(=O)N1OS(=O)(=O)c1ccc2ccccc2c1`, in series [1], the solubility result was “Soluble”.

Consider `O=C1CCC(=O)N1OS(=O)(=O)c1ccc([N+](=O)[O-])cc1`, for which the solubility result in series [1] is recorded as “Soluble”.

Turning to `O=C1c2ccccc2C(=O)N1S(=O)(=O)c1ccccc1`, the solubility result in [1] is “Soluble”.

Take `O=C1c2ccccc2C(=O)N1S(=O)(=O)c1ccc(-c2ccccc2)cc1`: the solubility result in series [1] is on record as “Soluble”.

Regarding `O=C(OCN1C(=O)c2ccccc2S1(=O)=O)c1ccccc1Cl`, the results for the inhibition in series [2], in [4] and in series [7] were 100%, greater than 50% and 100%, respectively. The inhibition result in series [3] is “inactive”. Also, the concentration for half-maximal inhibition (IC50) in series [5] was 8.8 µM; in series [6], 2.8 µM. Also, the Activity in series [8] is 20%.

In the case of `O=c1oc(Cl)c(Cl)c2ccccc12`, the inhibition result in series [2] and in series [7] was “Active” throughout.

In the case of `CS(=O)(=O)ON1C(=O)CCC1=O`, the solubility result in [1] was “Soluble”.

Regarding `Cc1ccc(S(=O)(=O)N[C@@H](Cc2ccccc2)C(=O)CCl)cc1`, the inhibition entry in series [2] and in series [7] was “inactive” each time.

`NCCc1ccc(S(=O)(=O)F)cc1`: the inhibition result in series [2] and in [7] was “inactive” in each case.

As to `CC(C)S(=O)(=O)N1C(=O)CCC1=O`, in [1], the solubility result is reported as “Soluble”.

Consider `O=C1CCC(=O)N1OS(=O)(=O)c1ccccc1`, for which the inhibition entry in [3] is “inactive”. Besides, the inhibition in series [4] is greater than 50%. For the same compound, the inhibition result in series [9] and in [8] was “Active” each time. Moreover, the results for the half-maximal inhibitory concentration (IC50) in series [5] and in [6] were 20 µM and 120 µM, respectively. The solubility result in series [1] was “Soluble”.

As to `O=C1c2ccccc2C(=O)N1OS(=O)(=O)c1ccc([N+](=O)[O-])cc1`, the solubility entry in series [1] was “Soluble”.

As to `CC(C)S(=O)(=O)ON1C(=O)CCC1=O`, the solubility entry in [1] is on record as “Soluble”.

Turning to `CC(C)S(=O)(=O)N1C(=O)c2ccccc2C1=O`, the solubility result in [1] is reported as “Soluble”.

Regarding `O=C1c2ccccc2C(=O)N1OS(=O)(=O)c1ccccc1`, the solubility entry in [1] is given as “Soluble”.

Take `COc1ccc(S(=O)(=O)ON2C(=O)c3ccccc3C2=O)cc1`: the solubility entry in series [1] is listed as “Soluble”.

As to `O=C1c2ccccc2C(=O)N1S(=O)(=O)c1ccc([N+](=O)[O-])cc1`, the solubility entry in series [1] is “Soluble”.

Regarding `O=C1CCC(=O)N1OS(=O)(=O)c1ccc(-c2ccccc2)cc1`, the IC50 in series [5] was 1.9 µM; in series [6], 26 µM. For the same compound, the solubility entry in series [1] is on record as “Soluble”.

For the compound `O=C1CCC(=O)N1S(=O)(=O)c1ccc(-c2ccccc2)cc1`, the values for the 50% inhibitory concentration (IC50) in [5] and in series [6] were 0.7 µM and 68 µM, respectively. Moreover, the solubility entry in [1] was “Soluble”.

Regarding `O=C1c2ccccc2C(=O)N1OS(=O)(=O)c1ccc2ccccc2c1`, in series [1], the solubility entry is listed as “Soluble”.

For `O=C1c2ccccc2C(=O)N1S(=O)(=O)c1ccc2ccccc2c1`, the solubility result in series [1] is recorded as “Soluble”.

Regarding `CS(=O)(=O)N1C(=O)c2ccccc2C1=O`, in series [1], the solubility entry is “Soluble”.

For `COc1ccc(S(=O)(=O)ON2C(=O)CCC2=O)cc1`, the solubility result in series [1] is listed as “Soluble”.

`O=C1CCC(=O)N1S(=O)(=O)c1ccccc1`: in series [3], the inhibition entry is “inactive”. Besides, the values for the IC50 in [5] and in series [6] were 4.3 µM and greater than 1000 µM, respectively. Further, the inhibition result in series [8] is “Active”. Moreover, the solubility entry in series [1] is given as “Soluble”.

Regarding `O=C1CCC(=O)N1S(=O)(=O)c1ccc2ccccc2c1`, the solubility result in series [1] is given as “Soluble”.

As for `COc1ccc(S(=O)(=O)N2C(=O)c3ccccc3C2=O)cc1`, the solubility result in [1] was “Soluble”.

Consider `O=C1CCC(=O)N1S(=O)(=O)c1ccc([N+](=O)[O-])cc1`, for which, in [3], the inhibition entry is “inactive”. In series [4], the inhibition result is “Active”. Also, the IC50 in [5] was 0.9 µM; in series [6] it was 310 µM. Further, in series [1], the solubility entry was “Soluble”.

For `O=C1c2ccccc2C(=O)N1OS(=O)(=O)c1ccc(-c2ccccc2)cc1`, in series [1], the solubility result is on record as “Soluble”.

`COc1ccc(S(=O)(=O)N2C(=O)CCC2=O)cc1`: the solubility entry in [1] is “Soluble”.

For the compound `CS(=O)(=O)N1C(=O)CCC1=O`, the solubility entry in series [1] is given as “Soluble”.

Consider `O=S(=O)(F)Cc1ccccc1`, for which the inhibition entry in [2] and in series [7] was “inactive” in each case.

`CS(=O)(=O)ON1C(=O)c2ccccc2C1=O`: in series [1], the solubility result was “Soluble”.

For the compound `CC(C)S(=O)(=O)ON1C(=O)c2ccccc2C1=O`, the solubility result in series [1] was “Soluble”.
